# Where two headings read alike, the source gives them in different places.
# How the values were obtained:
# [1] = system: Beet Armyworm (Spodoptera exigua, LAPHEG); assay: Bioassays on Beet Armyworm (BAW), 128-well diet tray assay; type: in vivo; settings: Spodoptera exigua
# In short: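 Mortality of second-instar larvae (1–5/well) on artificial diet treated with 50 μg/cm^2 compound, read after 5–7 days at 25° C.; values are means of eight wells.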
# [2] = system: Cabbage Looper (Trichoplusia ni, TRIPNI); assay: Bioassays on Cabbage Looper (CL), 128-well diet tray assay; type: in vivo; settings: Trichoplusia ni
# In short: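 One to five second-instar larvae per well on artificial diet surface-treated with 50 μg/cm^2 test molecule (applied in 90:10 acetone-water, dried). Held 5–7 days at 25° C, 14:10 light-dark; percent mortality recorded per well and averaged over eight wells.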
# [3] = Beet Armyworm, rating class, read-out: BAW
# [4] = Cabbage Looper, rating class, read-out: CL
# [5] = Table ABC: Biological Results, species BAW, read-out: BAW
# [6] = Table ABC: Biological Results, species CL, read-out: CL
# [7] = Beet Armyworm, Table ABC / ABC-DP rating, read-out: BAW rating
# [8] = Cabbage Looper, Table ABC / ABC-DP rating, read-out: CL rating
Structure (SMILES),"pest or weed control at 50 µg/cm2 [1, 3] [%]","pest or weed control at 50 µg/cm2 [2, 4] [%]","pest or weed control at 50 µg/cm2 [1, 5] [%]","pest or weed control at 50 µg/cm2 [2, 6] [%]",also measured
"CC(=O)Nc1cc(F)cc(F)c1NC(=O)c1cc(NC(=O)[C@H]2[C@H](c3cc(Cl)cc(Cl)c3)C2(Cl)Cl)ccc1Cl (relative stereo) [F1633, trans-N-(2-Acetamido-4,6-difluorophenyl)-2-chloro-5-(2,2-dichloro-3-(3,5-dichlorophenyl)cyclopropane-1-carboxamido)benzamide]",50 to 100,50 to 100,–,–,–
"CC(=O)Nc1c(F)cc(NC(=O)c2cc(NC(=O)[C@H]3[C@H](c4ccc(Cl)c(Cl)c4)C3(Cl)Cl)ccc2Cl)cc1F (relative stereo) [F1124, trans-N-(4-Acetamido-3,5-difluorophenyl)-2-chloro-5-(2,2-dichloro-3-(3,4-dichlorophenyl)cyclopropane-1-carboxamido)benzamide]",–,–,50 to 100,50 to 100,–
"O=C(NCC(F)(F)F)c1cc(NC(=O)[C@H]2[C@H](c3ccc(F)c(Cl)c3)C2(Cl)Cl)cc(F)c1F (relative stereo) [F2049, trans-5-(2,2-Dichloro-3-(3-chloro-4-fluorophenyl)cyclopropane-1-carboxamido)-2,3-difluoro-N-(2,2,2-trifluoroethyl)benzamide]",–,–,–,–,"pest or weed control at 50 µg/cm2 [1, 7]: 50 to 100%; pest or weed control at 50 µg/cm2 [2, 8]: 50 to 100%"
"O=C(Nc1ccc(F)c(NC(=O)C(F)F)c1F)c1cc(NC(=O)[C@H]2[C@H](c3cc(Cl)c(Cl)c(Cl)c3)C2(Cl)Cl)cc(F)c1Cl [F1335, 2-Chloro-5-((1R,3R)-2,2-dichloro-3-(3,4,5-trichlorophenyl)cyclopropane-1-carboxamido)-N-(3-(2,2-difluoroacetamido)-2,4-difluorophenyl)-3-fluorobenzamide]",–,–,50 to 100,50 to 100,–
"C=CC(=O)Nc1c(F)ccc(NC(=O)c2cc(NC(=O)[C@H]3[C@H](c4ccc(F)c(C(F)(F)F)c4)C3(Cl)Cl)ccc2Cl)c1F [F1877, N-(3-Acrylamido-2,4-difluorophenyl)-2-chloro-5-((1R,3R)-2,2-dichloro-3-(4-fluoro-3-(trifluoromethyl)phenyl)cyclopropane-1-carboxamido)benzamide]",–,–,–,–,"pest or weed control at 50 µg/cm2 [1, 7]: 50 to 100%; pest or weed control at 50 µg/cm2 [2, 8]: 50 to 100%"
"O=C(Nc1ccc(F)c(NC(=O)C(F)F)c1F)c1cc(NC(=O)[C@H]2[C@H](c3cc(Cl)c(Cl)c(Br)c3)C2(Cl)Cl)ccc1Cl (relative stereo) [F1623, trans-5-(3-(3-Bromo-4,5-dichlorophenyl)-2,2-dichlorocyclopropane-1-carboxamido)-2-chloro-N-(3-(2,2-difluoroacetamido)-2,4-difluorophenyl)benzamide]",50 to 100,50 to 100,–,–,–
"Nc1c(F)ccc(NC(=O)c2cc(NC(=O)[C@H]3[C@H](c4ccc(F)c(C(F)(F)F)c4)C3(Cl)Cl)cc(F)c2Cl)c1F [F1285, N-(3-Amino-2,4-difluorophenyl)-2-chloro-5-((1R,3R)-2,2-dichloro-3-(4-fluoro-3-(trifluoromethyl)phenyl)cyclopropane-1-carboxamido)-3-fluorobenzamide]",–,–,50 to 100,50 to 100,–
"CC(=O)Nc1cc(NC(=O)c2cc(NC(=O)[C@H]3[C@H](c4ccc(F)c(C(F)(F)F)c4)C3(Cl)Cl)cc(C)c2Cl)c(F)cc1F [F1548, N-(5-Acetamido-2,4-difluorophenyl)-2-chloro-5-((1R,3R)-2,2-dichloro-3-(4-fluoro-3-(trifluoromethyl)phenyl)cyclopropane-1-carboxamido)-3-methylbenzamide]",50 to 100,50 to 100,–,–,–
"CC(=O)Nc1ccc(F)c(NC(=O)c2cc(NC(=O)[C@H]3[C@H](c4ccc(F)c(C(F)(F)F)c4)C3(Cl)Cl)cc(F)c2F)c1F [F1576, N-(3-Acetamido-2,6-difluorophenyl)-5-((1R,3R)-2,2-dichloro-3-(4-fluoro-3-(trifluoromethyl)phenyl)cyclopropane-1-carboxamido)-2,3-difluorobenzamide]",50 to 100,50 to 100,–,–,–
"CN(C(=O)c1c(Cl)ccc(NC(=O)[C@H]2[C@H](c3ccc(F)c(Cl)c3)C2(Cl)Cl)c1Cl)c1ccc(N)cc1 (relative stereo) [F1106, trans-N-(4-Aminophenyl)-2,6-dichloro-3-(2,2-dichloro-3-(3-chloro-4-fluorophenyl)cyclopropane-1-carboxamido)-N-methylbenzamide]",–,–,50 to 100,0 to 50,–
"Cc1cc(NCCO)ccc1NC(=O)c1cc(NC(=O)[C@H]2[C@H](c3ccc(F)c(C(F)(F)F)c3)C2(Cl)Cl)ccc1Cl [F1145, 2-Chloro-5-((1R,3R)-2,2-dichloro-3-(4-fluoro-3-(trifluoromethyl)phenyl)cyclopropane-1-carboxamido)-N-(4-((2-hydroxyethyl)amino)-2-methylphenyl)benzamide]",–,–,50 to 100,50 to 100,–
"O=C(CCl)Nc1c(F)ccc(NC(=O)c2cc(NC(=O)[C@H]3[C@H](c4ccc(F)c(C(F)(F)F)c4)C3(Cl)Cl)ccc2Cl)c1F [F1726, 2-Chloro-N-(3-(2-chloroacetamido)-2,4-difluorophenyl)-5-((1R,3R)-2,2-dichloro-3-(4-fluoro-3-(trifluoromethyl)phenyl)cyclopropane-1-carboxamido)benzamide]",50 to 100,50 to 100,–,–,–
"Nc1ccc(F)c(NC(=O)c2cc(NC(=O)[C@H]3[C@H](c4cc(Cl)c(Cl)c(Cl)c4)C3(Cl)Cl)cc(F)c2Cl)c1F [F1337, N-(3-Amino-2,6-difluorophenyl)-2-chloro-5-((1R,3R)-2,2-dichloro-3-(3,4,5-trichlorophenyl)cyclopropane-1-carboxamido)-3-fluorobenzamide]",–,–,50 to 100,50 to 100,–
"CC(C)(C)OC(=O)Nc1c(F)ccc(NC(=O)c2cc(NC(=O)[C@H]3[C@H](c4cc(F)cc(C(F)(F)F)c4)C3(Cl)Cl)ccc2Cl)c1F (relative stereo) [F1092, trans-tert-Butyl-(3-(2-chloro-5-(2,2-dichloro-3-(3-fluoro-5-(trifluoromethyl)phenyl)cyclopropane-1-carboxamido)benzamido)-2,6-difluorophenyl)carbamate]",–,–,50 to 100,50 to 100,–
"O=C(NNc1ccc(Cl)c(Cl)c1)c1cc(NC(=O)[C@H]2[C@H](c3cc(Cl)cc(Cl)c3)C2(Cl)Cl)ccc1Cl (relative stereo) [F2560, trans-2,2-Dichloro-N-(4-chloro-3-(2-(3,4-dichlorophenyl)hydrazine-1-carbonyl)phenyl)-3-(3,5-dichlorophenyl)cyclopropane-1-carboxamide]",–,–,–,–,"pest or weed control at 50 µg/cm2 [1, 7]: 50 to 100%; pest or weed control at 50 µg/cm2 [2, 8]: 50 to 100%"
"O=C(COCC(F)(F)F)Nc1c(F)ccc(NC(=O)c2cc(NC(=O)[C@H]3[C@H](c4ccc(F)c(C(F)(F)F)c4)C3(Cl)Cl)ccc2Cl)c1F [F1846, 2-Chloro-5-((1R,3R)-2,2-dichloro-3-(4-fluoro-3-(trifluoromethyl)phenyl)cyclopropane-1-carboxamido)-N-(2,4-difluoro-3-(2-(2,2,2-trifluoroethoxy)acetamido)phenyl)benzamide]",–,–,–,–,"pest or weed control at 50 µg/cm2 [1, 7]: 50 to 100%; pest or weed control at 50 µg/cm2 [2, 8]: 50 to 100%"
"O=C(Nc1ccc(F)c(NC(=O)C2CCCO2)c1F)c1cc(NC(=O)[C@H]2[C@H](c3ccc(Cl)c(Cl)c3)C2(Cl)Cl)ccc1Cl (stereo partly drawn) [F1611, N-(3-(2-Chloro-5-((1R,3R)-2,2-dichloro-3-(3,4-dichlorophenyl)cyclopropane-1-carboxamido)benzamido)-2,6-difluorophenyl)tetrahydrofuran-2-carboxamide]",50 to 100,50 to 100,–,–,–
"CC(=O)Nc1c(F)ccc(NC(=O)c2cc(NC(=O)[C@H]3[C@H](c4cc(Cl)cc(Cl)c4)C3(Cl)Cl)cc(F)c2Cl)c1F [F1502, N-(3-Acetamido-2,4-difluorophenyl)-2-chloro-5-((1R,3R)-2,2-dichloro-3-(3,5-dichlorophenyl)cyclopropane-1-carboxamido)-3-fluorobenzamide]",50 to 100,50 to 100,–,–,–
"CC(C)(C)OC(=O)N(C(=O)OC(C)(C)C)c1c(F)ccc(NC(=O)c2c(F)ccc(NC(=O)[C@H]3[C@H](c4ccc(F)c(Cl)c4)C3(Cl)Cl)c2F)c1F (relative stereo) [F1109, trans-tert-Butyl-N-tert-butoxycarbonyl-N-[3-[[3-[[2,2-dichloro-3-(3-chloro-4-fluorophenyl)cyclopropanecarbonyl]amino]-2,6-difluorobenzoyl]amino]-2,6-difluorophenyl]carbamate]",–,–,50 to 100,50 to 100,–
"Cc1cc(NC(=O)[C@H]2[C@H](c3cc(Cl)c(Cl)c(Cl)c3)C2(Cl)Cl)cc(C(=O)Nc2cc(NC(=O)C(F)F)c(F)cc2F)c1Cl [F1498, 2-Chloro-5-((1R,3R)-2,2-dichloro-3-(3,4,5-trichlorophenyl)cyclopropane-1-carboxamido)-N-(5-(2,2-difluoroacetamido)-2,4-difluorophenyl)-3-methylbenzamide]",50 to 100,50 to 100,–,–,–
"O=C(Nc1cc(NC(=O)C(F)F)c(F)cc1F)c1cc(NC(=O)[C@H]2[C@H](c3ccc(Cl)c(Cl)c3)C2(Cl)Cl)cc(F)c1Cl [F1402, 2-Chloro-5-((1R,3R)-2,2-dichloro-3-(3,4-dichlorophenyl)cyclopropane-1-carboxamido)-N-(5-(2,2-difluoroacetamido)-2,4-difluorophenyl)-3-fluorobenzamide]",50 to 100,50 to 100,–,–,–

# — patent publication US20250228239A1, “MOLECULES HAVING PESTICIDAL UTILITY, AND INTERMEDIATES, COMPOSITIONS, AND PROCESSES, RELATED THERETO” (priority 2024, published 2025)
